Assay results: patent publication US8110655B2, “Method to promote hair growth and/or delay or treat hair loss by administering a TGF-β antagonist or inhibitor” (Auxagen, Inc., priority 2006, dated 2012)
Where no end group is shown, it is not given here. PEG = not defined here

Key:
[1] = test system: partial-thickness pig skin burn wounds; assay: Partial-thickness porcine burn wound outcomes; format: in vivo
Experimental: Animals were sedated with Talazine® ([…] Zolazepam, Fort Dodge Lab, Fort Dodge, Iowa) 5 mg/kg IM. The pigs were then intubated endotracheally and maintained under a surgical plane of anesthesia with isoflurane 0.5-2.5% in room air. The flank and back hair was clipped with hair clippers and the skin was scrubbed with a povidine iodine solution. Standardized partial thickness burns were created on the animals' backs and flanks by applying a 2.5 cm by 2.5 cm, 150 gram aluminum bar preheated in hot water to 80° C. The heated bar was wiped dry just prior to application to prevent water droplets from creating a steam burn on the skin. The bar was then placed at a vertical position perpendicular to the skin's surface and applied for a period of 20 seconds with all pressure supplied by gravity. […] In order to simulate burn blister debridement and enhance the absorption of the topical agents, the necrotic epidermis was gently removed by rubbing the burn with dry gauze. Removal of the necrotic epidermis results in delayed reepithelialization, and increased scar formation^17. Twenty burns were inflicted on each of 2 pigs (evenly distributed between both side of the pigs), for a total of 40 burns. The agent used in the studies is PEG-β1^25 (SEQ ID NO: 8) This particular peptide was chosen after screening seven pentacosapeptides whose amino acids overlap and cover most of the human TGF-β1 molecule, the monomer of which has 112 amino acid residues. […] Furthermore, the chosen peptide was also shown to block the cellular responses to TGF-β1 such as DNA synthesis and transcriptional activation of PAI-1. […] TGF-β peptantagonist PEG-β1^25 in PBS was mixed with Sterile IntraSite gel from Smith and Nephew Medical, Ltd. (UK) at a ratio of 1:3 (v/v). The pigs were randomized to treatment with topical PEG-β1^25 peptantagonist (SEQ ID NO: 8) or its vehicle (carboxy methylcellulose, IntraSite Gel, Smith and Nephew, Largo, Fla.) immediately after injury and at days 3, 5, 7, 10, 14, 18, 21, and 25. A thin layer of the topical treatment was applied with a sterile metal spatula. Group randomization order was determined by drawing unlabeled forms from an opaque container. After applying the topical therapy, the burns were covered with dry non-adherent gauze ([…] Company, Mansfield, Mass.). The burned areas were then covered with a gauze bandage roll (Conform®), Kendall Healthcare Products Company, Mansfield, Mass.) and an adhesive elastic bandage (Elastoplast®, Beiersdorf-Jobst, Inc., Rutherford College, N.C.). The adhesive dressing was secured to the skin at a distance from the burns with skin staples. Animals were observed frequently for signs of pain or discomfort and treated with IM buprenorphine 0.01 mg/kg as needed. Dressing changes were performed with each application of the topical agents. At each dressing change all gauze dressings were removed and the wounds were observed and the study agent was reapplied. All burns were then re-covered with non-adherent gauze and elastic wrap as previously described. Full thickness 4-mm punch biopsies (Miltex Instrument Company Inc., Lake Success, N.Y.) were taken after 7, 10, and 14 days for blinded histopathological evaluation by a board-certified dermatopathologist masked to treatment assignment. The entire wound was excised at 28 days and submitted for histological evaluation. Digital photos were taken prior to biopsy to determine the presence of wound contraction defined as an hourglass like shape. Histopathological studies were done on formalin-fixed, alcohol-dehydrated, xylene-cleared, paraffin-embedded, hematoxylin and eosin stained 5 μm sections using conventional microscopy. The primary outcome was the percent of wounds healing with wound contraction. Secondary outcomes were percent reepithelialization, percent wound infection, and the percent of wounds with scars extending through the entire thickness of the dermis. […]

[2] = test system: TGF-β receptors in mink lung epithelial cells; assay: Inhibition of labeled TGF-β binding to TGF-β receptors in mink lung epithelial cells; conditions: screen of seven pentacosapeptides
Source text: (§1) By “treating or preventing alopecia” is meant the ability to cure, reduce or prevent one or more clinical symptoms of alopecia, including, but not limited to, hair loss, cornification, scaling, uneven thickness, persistent itch, inflammation, and rapid epithelial cell turnover in the skin. Treating alopecia also includes the promotion of hair growth at the site of the hair loss. The methods of the invention also encompass promotion or stimulation of hair growth in general (e.g. to thicken naturally thin hair). […] It was also discovered that at least four consecutive amino acids comprising W(or R)XXD (wherein X is any amino acid) motif in the sequences, determines their potencies and that they block TGF-β-induced growth inhibition and TGF-β-induced expression of PAI-1 in mink lung epithelial cells and other cell types (U.S. Pat. No. 6,500,920 issued Dec. 31, 2002). As was previously disclosed by the inventors, such peptides are effective in inhibiting, ameliorating or reversing the effects of TGF-β in biological systems including but not limited to reducing scarring wounds, to prevent lung injury in adult respiratory distress syndrome (ARDS), and injuries of other tissues caused by pharmacological agents (e.g. bladder injury caused by cyclophosphamide). […]

[3] = test system: mink lung epithelial cells; assay: Block of TGF-β-induced growth inhibition / DNA synthesis response; format: cell-based
Source text: as §1

PAI-1 = assay: Block of TGF-β-induced expression / transcriptional activation of PAI-1; format: cell-based, mink
Source text: as §1

[4] = day 28, of 20 burns, full thickness scars

Substance: PEG-β1^25: β1^25 (SEQ ID NO: 8) pegylated at the N-terminal alpha-amino group and at the epsilon-amino group ({PEG}-ANFSLGPSPYIWSLDTQYSK(PEG)VLALY; reading uncertain; listed as Homo Sapiens)
- Percent wound reepithelialization, day 7 ([1]; day 7, 20 burns): 14.2 (28.8) %
- Percent wound reepithelialization, day 10 ([1]; day 10, 20 burns): 46.3 (44.4) %
- Percent wound reepithelialization, day 14 ([1]; day 14, 20 burns): 91.9 (25.7) %
- % wounds completed reepithelialized, day 14 ([1]; day 14, of 20 burns): 90%
- No. wounds completed reepithelialized, day 14 ([1]; day 14, of 20 burns): 18
- % contracted wounds, day 28 ([1]; day 28, of 20 burns): 35%
- No. contracted wounds, day 28 ([1]; day 28, of 20 burns): 7
- % deep scars, day 28 [1, 4]: 10%
- No. deep scars, day 28 [1, 4]: 2
- hair growth in treated wounds ([1]; partial-thickness burn, topical gel): exhibited hair growth
- Mean Difference (95% CI) in percent wound reepithelialization, day 7 ([1]; versus control vehicle, day 7): 7.9 (−8.2-24.1)
- Mean Difference (95% CI) in percent wound reepithelialization, day 10 ([1]; versus control vehicle, day 10): 20.9 (−6.1-48.0)
- Mean Difference (95% CI) in percent wound reepithelialization, day 14 ([1]; versus control vehicle, day 14): 19.5 (−2.5-41.5)
- inhibition of binding of labeled TGF-β1 to its receptor [2]: completely inhibited
- block of cellular response to TGF-β1: DNA synthesis [3]: block
- block of cellular response to TGF-β1: transcriptional activation of PAI-1 (PAI-1): block
